Literature values as cited in patent publication US7163956B2, “Substituted fullerene compositions and their use as antioxidants” (C Sixty Inc., priority 2003, dated 2007).

System: mice
Conditions: oral administration, about 0.5 mg/kg/day

(C60(>C(COOH)2)3) [C3]
increase in mean survival relative to controls: ~20%
mean survival (controls 23.5+/−5.5 months, p=0.033): 28.7+/−3.3 months
